From patent US20160030367A1, “Methods and Compositions for Preventing Metastasis and for Improving the Survival Time” (INSERM (INSTITUT NATIONAL DE LA SANTÉ ET DE LA RECHERCHE …, priority 2013, published 2016)
Starred links: 1 amine or outer side, 2 acyl side, 3 side chain; linkers in the order of their positions; H or OH if unused. Positions of bridges follow the written chain, without caps; N, C: chain ends. Non-standard residues stand in square brackets, D forms with d. Residues, ends and D or L forms follow the SMILES beside them. Chains are numbered I, II in the order given. Actinocin(9to1) = Cc1c2oc3c(C)ccc(C(=O)[*:1])c3nc-2c(C(=O)[*:2])c(N)c1=O; NMeV = CN[C@H](C(=O)O)C(C)C; Sar = CNCC(=O)O

Assays:
1205Lu melanoma cells [1] = experiment: Invasion assay in Matrigel-coated Boyden chambers; format: cell-based, human; conditions: for cell invasion, dose dependence: indicated concentrations
Protocol: (§1) Boyden chambers (8.0-μm pores, Transwell, Corning, Inc.) were coated with 1 mg/ml Matrigel® (BD Biosciences) and were placed into 24-well chambers containing medium supplemented with 10% FCS. The cells were resuspended in FCS-starved medium, loaded into the top chamber. […] Results represent the average of triplicate samples from three independent experiments.

A375 melanoma cells [2] = experiment: Invasion assay in Matrigel-coated Boyden chambers; format: cell-based; conditions: 24 h; for cell invasion, dose dependence: indicated concentrations
Protocol: as §1

p53 = experiment: p53-dependent luciferase reporter assay (PG13-Luc) in melanoma cells; format: cell-based; conditions: positive control
Protocol: Melanoma cells were seeded in 24-well dishes, and transient transfections were performed the following day using 2 μl Lipofectamine (Gibco-BRL, Eragny, France) and 0.3 mg of PG13-Luc, a p53-dependent firefly luciferase reporter gene in a 200-ml final volume. pCMVβGal plasmid was cotransfected to control the variability of transfection efficiency in the reporter assays. […] At 24 hours after stimulation, cells were harvested in 50 μl of lysis buffer and soluble extracts assayed for luciferase and β-galactosidase activities. All transfections were repeated several times using different plasmid preparations. Luciferase assays were carried out exactly as described (17).

WM9 melanoma cells = experiment: Three-dimensional spheroid invasion into collagen; format: cell-based
Protocol: Melanoma spheroids were prepared using the liquid overlay method. Briefly, 500 μL of melanoma cells (20000/ml) were added to a 24-well plate coated with 1.5% agar (Difco, Sparks, Md.). Plates were left to incubate for 72 hours, by which time cells had organized into three-dimensional spheroids. Spheroids were then harvested using a P1000 pipette. The medium was removed and the spheroids were implanted into a gel of bovine collagen I containing MEM (Invitrogen). Normal melanoma medium was overlaid on top of the solidified collagen. After different time, pictures of the invading spheroids were taken using a Zeiss microscope.

total MMP activity = experiment: Matrix metalloproteinase (MMP) activity measurement, fluorogenic substrate, culture media of 1205Lu cells; format: cell-based, human; conditions: 10 mM, 24 h
Protocol: The culture media from stimulated cells were harvested and incubated in a 96-well plate with 0.2 mM of NH2-RA-Dpa-LGLP-AMC as a substrate for various times at 37° C. MMP activity was measured in quadruplicate by quantifying the emission at 460 nm (excitation at 390 nm) in the presence or absence of 10 μM CP471474. The enzyme activities were expressed in arbitrary units per mg of protein.

[3] = system: melanoma cells freshly isolated from patients; experiment: Invasion assay in Matrigel-coated Boyden chambers; format: cell-based, human; conditions: 10 mM, 24 h
Protocol: Different cancer cell lines were purchased from American Tissue Culture Collection (Molsheim, France). Cells were grown in RPMI 1640 (A375, WM9, SKMel28 and LNCap) or in DMEM medium (1205Lu, Mel501, Mewo and PC3) supplemented with 10% FCS and penicillin/streptomycin (100 U/ml/[…]) at 37° C. and 5% CO2. Patient melanoma cells were prepared as described (13). Briefly, biopsy was dissected and digested for 1-2 h with collagenase A (0.33 U/ml), dispase (0.85 U/ml) and Dnase I (144 U/ml) with rapid shaking at 37° C. Large debris were removed by filtration through a […] cell strainer. Viable cells were obtained by Ficoll gradient centrifugation.
Boyden chambers (8.0-μm pores, Transwell, Corning, Inc.) were coated with 1 mg/ml Matrigel® (BD Biosciences) and were placed into 24-well chambers containing medium supplemented with 10% FCS. The cells were resuspended in FCS-starved medium, loaded into the top chamber. 5 h later, cells adherent to the underside of the filters were fixed with 4% PFA and stained with 0.4% crystal violet, and five random fields at 20× magnification were counted. Results represent the average of triplicate samples from three independent experiments.

1205Lu melanoma cells [4] = experiment: Wound healing assay; format: cell-based, human
MMP-9 = experiment: Type I collagen substrate zymography, 1205Lu culture media; format: cell-based, human
Protocol: (§2) The culture media from 1205Lu melanoma cells was concentrated in centrifugal filter unit and loaded on 10% SDS-polyacrylamide gels containing 1 mg/ml type I collagen (BD Biosciences). To estimated the protein concentration, 1205Lu melanoma cells were lysed in a buffer containing 1% Triton X-100, 150 mM NaCl, and 20 mM Tris, pH 7.4, supplemented with a protease inhibitor mixture (Complete EDTA-free, Roche Molecular Biochemicals) at 4° C. under agitation for 30 min. Lysates were clarified by brief spinning, and protein concentration was evaluated by bicinchoninic acid technique (BCA protein assay kit, Pierce). Following electrophoresis, proteins were renatured by incubating gels in 2.5% Triton X-100 for 2 h at 37° C. Gels were then washed three times in distilled water and incubated in substrate buffer (50 mM Tris, pH 7.4, and 1 mM CaCl2) at 37° C. for 24 h with gentle shaking Gels were stained with 0.1% Coomassie Blue R-250 (Sigma) and destained in 7% acetic acid. Enzymatic activities appear as cleared bands in a dark background.

MMP-2 = experiment: as above; format: cell-based, human
Protocol: as §2

[5] = system: Fibronectin, N-Cadherin, Vimentin, Sparc, Slug and Snail in 1205Lu melanoma cells; experiment: Western blot of EMT markers; format: cell-based, human
Protocol: (§3) Protein were extracted in buffer containing TRIS-HCl pH7.5 50 mM, NaCl 15 mM, Triton X-100 1% and protease and phosphatase inhibitor 1X. Briefly, cell lysates (30 μg) were separated by SDS-PAGE, transferred onto a PVDF membrane (Millipore, Molsheim, France) and then exposed to the appropriate antibodies. Proteins were visualized with the ECL system from Amersham (Arlington, Heights, Ill., USA). The western blots shown are representative of at least 3 independent experiments.

AMPK = experiment: Western blot in 1205Lu cells infected with Ad AMPK-DN or Ad control; format: cell-based, human
Protocol: Adenoviruses encoding a dominant negative form (Ad AMPK-DN) of subunits α1 and α2 of AMPK were a generous gift of Dr. Foufelle (INSERM, UMR-S 872, Paris, France). An adenovirus of which the expression cassette contains the major late promoter with no exogenous gene was used as control (Ad control). Adenoviruses were propagated in human embryonic kidney 293 cells and stored at −80° C.
as §3

[6] = system: Slug and N-cadherin in Mewo cells; experiment: Western blot in Mewo cells infected with Adp53; format: cell-based; conditions: re-expression of WT p53 by adenovirus infection
Protocol: as §3

[7] = system: 1205Lu melanoma cells expressing luciferase; experiment: Lung metastasis model, bioluminescence, nude mice; format: in vivo
Protocol: 1205Lu cells stably transfected with a vector encoding luciferase cells come from the team of Dr. Tartare-Deckert. A total of 1×10^6/150 μl PBS 1205Lu-Luc cells were injected via the tail vein of nude mice (Harlan Laboratories). […] To perform pulmonary extravasation analysis, 1.5×10^6 1205Lu cells were labelled for 1 h with CellTracker™ Green (Invitrogen) and injected via the tail vein of nude mice.

1205Lu melanoma cells [8] = experiment: Pulmonary extravasation model in nude mice; conditions: cells treated 24 h with 10 mM before tail vein injection; lungs after 24 h
A375 melanoma cells [9] = experiment: Wound healing assay; format: cell-based
A375 melanoma cells [10] = experiment: Migration assay in Boyden chambers; format: cell-based; conditions: after 24 hours
Text: as §1, with “Inc.)” for “Inc.) were coated with 1 mg/ml Matrigel® (BD Biosciences) and”

melanomas cells = conditions: long term treatment of 96 hours; cited from earlier work
1205Lu melanoma cells [11] = experiment: Migration assay in Boyden chambers; format: cell-based, human; conditions: after 24 hours
Text: as §1, with “Inc.)” for “Inc.) were coated with 1 mg/ml Matrigel® (BD Biosciences) and”

[12] = cells transfected with siRNA against p53

## NC(=O)c1ncn([C@@H]2O[C@H](CO)[C@@H](O)[C@H]2O)c1N [AICAR, 5-aminoimidazole-4-carboxamide-1-β-D-ribofuranoside]
1205Lu melanoma cells [1]; 24 h
  cell invasion, dose dependence: decreases cell invasion in dose dependent manner
A375 melanoma cells [2]
  cell invasion, dose dependence: decreases cell invasion in dose dependent manner

## Cc1c2oc3c(C)ccc(C(=O)N[C@@H]4C(=O)N[C@H](C(C)C)C(=O)N5CCC[C@H]5C(=O)N(C)CC(=O)N(C)[C@@H](C(C)C)C(=O)O[C@@H]4C)c3nc-2c(C(=O)N[C@@H]2C(=O)N[C@H](C(C)C)C(=O)N3CCC[C@H]3C(=O)N(C)CC(=O)N(C)[C@@H](C(C)C)C(=O)O[C@@H]2C)c(N)c1=O [Actinomycin D] (I: T[dV]P[Sar][NMeV] / II: T[dV]P[Sar][NMeV]; ester I:1-I:C, II:1-II:C; linker I:N-II:N via Actinocin(9to1))
p53
  increase of p53 promoter activity: comparable to metformin 10 mM

## CC(C)[C@H](NC(=O)c1ccc2ccccc2n1)C(=O)N[C@@H](CC(=O)O)C(=O)COc1c(F)cccc1F [QVD]
WM9 melanoma cells; spheroids embedded in collagen
  cell invasion into collagen: contrary to QVD alone, association of QVD with metformin block invasion

## CN(C)C(=N)N=C(N)N [metformin]
1205Lu melanoma cells [1]; 24 h
  cell invasion, dose dependence: decreases cell invasion in dose dependent manner
1205Lu melanoma cells [1]; Homo sapiens, 1205Lu, 10 mM, 24 h, read-out: inhibition of cell invasion
  inhibition at 10000 µM: 95%
1205Lu melanoma cells [1]; [12]
  inhibition of invasion: prevent downregulation of Slug and inhibition of invasion
1205Lu melanoma cells [1]; in presence of dominant negative forms of AMPK
  inhibition of invasion: abolished
Total MMP activity
  decrease of total MMP activities: approximately 30%
[3]
  cell invasion: significant inhibition of cell invasion
1205Lu melanoma cells [4]
  cell migration (wound healing): Results were confirmed
MMP-9; 5 mM
  MMP-9 activity: important diminution
MMP-9; 10 mM
  decrease of MMP-9 activity: 45%
MMP-2; 5 mM
  MMP-2 activity: important diminution
MMP-2; 10 mM
  decrease of MMP-2 activity: 80%
[5]; 24 h
  N-cadherin expression: decrease
  SPARC expression: inhibited in a dose dependent manner
  Slug level: decrease
  Snail level: also decrease
  fibronectin expression: decrease
  vimentin expression: not modified
[5]; 24 h, listed as Metformin
  N-cadherin expression: inhibited in a dose dependent manner
  Slug level: also decrease
  fibronectin expression: inhibited in a dose dependent manner
[5]; [12]
  Slug downregulation: prevent downregulation of Slug
AMPK; cells infected by AdAMPK DN α1 and α2
  metformin-stimulated phosphorylation of Acetyl-CoA carboxylase (ACC): abolished
AMPK; cells infected with Ad control
  Slug and SPARC expression: inhibited
AMPK; expression of AMPK DN constructs
  Slug and SPARC expression: abrogates these inhibitory effects
[6]
  decrease in Slug and N-cadherin expressions: restored
[7]; 7 days after cell injection, intraperitoneal, 2 mg/mouse/day
  increase in bioluminescence intensity in lungs of vehicle-treated mice compared to metformin-treated mice: 3 fold
[7]; after 39 day, intraperitoneal, 2 mg/mouse/day
  bioluminescence intensity in lungs: very weak
[7]; immunofluorescent staining, vs vehicle
  Slug staining in sections of lung tumors: significant decrease in Slug staining
WM9 melanoma cells; in presence of apoptosis inhibitor QVD
  cell invasion into collagen: block invasion
WM9 melanoma cells; spheroids embedded in collagen
  cell invasion into collagen: significantly reduced cell invasion into collagen
1205Lu melanoma cells [8]
  micro-metastases in the lungs (extravasation): much more micro-metastases in the lungs than 1205Lu cells treated by metformin
A375 melanoma cells [9]
  cell migration (wound healing): Results were confirmed
A375 melanoma cells [10]
  cell migration: do not inhibit migration
Melanomas cells
  cell death: induced cell death of melanomas cells
1205Lu melanoma cells [11]
  cell migration: do not inhibit migration
A375 melanoma cells [2]
  cell invasion, dose dependence: decreases cell invasion in dose dependent manner
A375 melanoma cells [2]; Homo sapiens, A-375, 10 mM, read-out: inhibition of cell invasion
  inhibition at 10000 µM: 90%

## [H]/N=C(/N)N/C(=N/[H])NCCc1ccccc1 [phenformin]
1205Lu melanoma cells [1]; 24 h
  cell invasion, dose dependence: decreases cell invasion in dose dependent manner
A375 melanoma cells [2]
  cell invasion, dose dependence: decreases cell invasion in dose dependent manner

## Oc1ccc(/C=C/c2cc(O)cc(O)c2)cc1 [resveratrol, 3,5,4′-trihydroxy-trans-stilbene]
1205Lu melanoma cells [1]; 24 h
  cell invasion, dose dependence: decreases cell invasion in dose dependent manner
A375 melanoma cells [2]
  cell invasion, dose dependence: decreases cell invasion in dose dependent manner
